From US20210189342A1, “COMPOSITIONS AND METHODS FOR MODULATING MONOCYTE AND MACROPHAGE INFLAMMATORY PHENOTYPES AND IMMUNOTHERAPY USES THEREOF” (Verseau Therapeutics, Inc., priority 2018, published 2021) come the findings set out here.

In general, IC50 refers to the concentration needed to halve the response being measured.

The first series concerns SIGLEC9. Kind of series: siRNA dose response, SIGLEC9 mRNA knockdown, Dual-Glo Luciferase Assay. As to conditions: Hepa1-6 + reporter plasmid, 24 hr. It is filed as cell-based, human. As for the experimental part:
(§1) Dose response curves for siRNAs were generated in vitro using a variety of cell lines according to Table 4.
(§2) Briefly, cells were seeded in 96-well plates and reverse transfected with siRNA, Lipofectamine® 2000 (0.5 uL/well; ThermoFisher), and, in some cases, a reporter plasmid (50 ng/well). The reporter plasmid (psiCHECK™-2, Promega) encoded both firefly luciferase and the gene of interest fused to renilla luciferase; silencing of the gene of interest results in proportional silencing of renilla luciferase but leaves firefly luciferase unaffected as an internal control.
(§3) After 24 hr incubation at 37° C., mRNA knockdown was measured using an endpoint assay. For targets without a reporter plasmid, a branched DNA (bDNA) assay was performed according to the manufacturer's instructions (QuantiGene® Singleplex Gene Expression Assay, ThermoFisher) to measure both the target gene and GAPDH (housekeeping gene) mRNA. Data are plotted as siRNA concentration (nM) vs. remaining mRNA (ratio of target gene to GAPDH, normalized to mock siRNA-transfected cells). For targets with a reporter plasmid, a Dual-Glo® Luciferase Assay was performed according to the manufacturer's instructions (Promega) to measure firefly and renilla luciferase expression. Data are plotted as siRNA concentration (nM) vs. remaining mRNA (ratio of renilla to firefly luminescence, normalized to mock siRNA-transfected cells).
(§4) For all dose response curves, a 4-parameter logistic model was applied to determine the IC50 of each siRNA sequence (Table 5 and FIG. 2). Data shown in Table 5 and FIG. 2 represent the mean of quadruplicates, +/−standard deviation.
Turning to “XD-09180: siRNA targeting SIGLEC9 (sense 5'-acAAGuAAAcuGcuGacGAdTsdT-3'; antisense 5'-UCGUcAGcAGUUuACUUGUdTsdT-3'; RNA with 2'-O-methyl and phosphorothioate modifications, case key not given here, as printed in the source, key not given here)”, the IC50 was determined as 0.04 nM. Consider “XD-09181: siRNA targeting SIGLEC9 (sense 5'-guAAAcuGcuGAcgAuGcAdTsdT-3'; antisense 5'-UGcAUCGUcAGcAGUUuACdTsdT-3'; RNA with 2'-O-methyl and phosphorothioate modifications, case key not given here, as printed in the source, key not given here)”, for which the 50% inhibitory concentration (IC50) came to 0.286 nM. For the substance “XD-09182: siRNA targeting SIGLEC9 (sense 5'-ucGcAuGGcuGGAuuuAccdTsdT-3'; antisense 5'-GGuAAAUCcAGCcAUGCGAdTsdT-3'; RNA with 2'-O-methyl and phosphorothioate modifications, case key not given here, as printed in the source, key not given here)”, the 50% inhibitory concentration (IC50) was found to be 0.837 nM. Take “XD-09183: siRNA targeting SIGLEC9 (sense 5'-guuccGGGAAGGGgccAAudTsdT-3'; antisense 5'-AUUGGCCCCUUCCCGGAACdTsdT-3'; RNA with 2'-O-methyl and phosphorothioate modifications, case key not given here, as printed in the source, key not given here)”: the half-inhibitory concentration (IC50) was 0.229 nM. As to “XD-09184: siRNA targeting SIGLEC9 (sense 5'-ggGccAAuAcAGAccAGGAdTsdT-3'; antisense 5'-UCCUGGUCUGuAUUGGCCCdTsdT-3'; RNA with 2'-O-methyl and phosphorothioate modifications, case key not given here, as printed in the source, key not given here)”, the 50% inhibitory concentration (IC50) turned out to be 0.127 nM.

With “XD-09185: siRNA targeting SIGLEC9 (sense 5'-ccAGAAGAAGuGAuGcGGGdTsdT-3'; antisense 5'-CCCGcAUcACUUCUUCUGGdTsdT-3'; RNA with 2'-O-methyl and phosphorothioate modifications, case key not given here, as printed in the source, key not given here)”, the IC50 was 0.094 nM. As to “XD-09186: siRNA targeting SIGLEC9 (sense 5'-ucAccGGcucucuguGAAudTsdT-3'; antisense 5'-AUUcAcAGAGAGCCGGUGAdTsdT-3'; RNA with 2'-O-methyl and phosphorothioate modifications, case key not given here, as printed in the source, key not given here)”, the half-maximal inhibitory concentration (IC50) was 0.488 nM. Still for that read-out and setting: next, “XD-09187: siRNA targeting SIGLEC9 (sense 5'-gaccAcGaacAAGaccGucdTsdT-3'; antisense 5'-GACGGUCUUGUUCGUGGUCdTsdT-3'; RNA with 2'-O-methyl and phosphorothioate modifications, case key not given here, as printed in the source, key not given here)”: 0.406 nM; “XD-09188: siRNA targeting SIGLEC9 (sense 5'-gaAcAAGAccGuccAucucdTsdT-3'; antisense 5'-GAGAUGGACGGUCUUGUUCdTsdT-3'; RNA with 2'-O-methyl and phosphorothioate modifications, case key not given here, as printed in the source, key not given here)”: 0.148 nM; “XD-09189: siRNA targeting SIGLEC9 (sense 5'-agAccGuccAucucAAcGudTsdT-3'; antisense 5'-ACGUUGAGAUGGACGGUCUdTsdT-3'; RNA with 2'-O-methyl and phosphorothioate modifications, case key not given here, as printed in the source, key not given here)”: 0.694 nM.

Turning to “XD-09190: siRNA targeting SIGLEC9 (sense 5'-ccGuccAucucAAcGuGucdTsdT-3'; antisense 5'-GAcACGUUGAGAUGGACGGdTsdT-3'; RNA with 2'-O-methyl and phosphorothioate modifications, case key not given here, as printed in the source, key not given here)”, the 50% inhibitory concentration (IC50) came to 0.905 nM. For “XD-09192: siRNA targeting SIGLEC9 (sense 5'-caGuAuccAcAGucuuGGGdTsdT-3'; antisense 5'-CCcAAGACUGUGGAuACUGdTsdT-3'; RNA with 2'-O-methyl and phosphorothioate modifications, case key not given here, as printed in the source, key not given here)”, the IC50 stood at 0.236 nM. Same read-out and setting: then “XD-09193: siRNA targeting SIGLEC9 (sense 5'-guAuccAcAGucuuGGGAAdTsdT-3'; antisense 5'-UUCCcAAGACUGUGGAuACdTsdT-3'; RNA with 2'-O-methyl and phosphorothioate modifications, case key not given here, as printed in the source, key not given here)”, with 0.459 nM; and “XD-09194: siRNA targeting SIGLEC9 (sense 5'-cucAGcAGGucuAccuGAAdTsdT-3'; antisense 5'-UUcAGGuAGACCUGCUGAGdTsdT-3'; RNA with 2'-O-methyl and phosphorothioate modifications, case key not given here, as printed in the source, key not given here)”, with 5.63 nM. With “XD-09195: siRNA targeting SIGLEC9 (sense 5'-gcGuGGGAGAuAcgGGcAudTsdT-3'; antisense 5'-AUGCCCGuAUCUCCcACGCdTsdT-3'; as printed in the source, key not given here)”, the IC50 came out at 0.125 nM. Take “XD-09197: siRNA targeting SIGLEC9 (sense 5'-ggAGAuAcGGGcAuAGAGGdTsdT-3'; antisense 5'-CCUCuAUGCCCGuAUCUCCdTsdT-3'; as printed in the source, key not given here)”: the 50% inhibitory concentration (IC50) was 0.851 nM.

The next series deals with CD84. Kind of series: siRNA dose response, CD84 mRNA knockdown, Dual-Glo Luciferase Assay. In kind it is cell-based, human. As to conditions: Hepa1-6 + reporter plasmid, 24 hr. Here is the method: as §1, §2, §3, §4
Turning to “XD-09610: siRNA targeting CD84 (sense 5'-accAAAAAuuAcAcAGAGudTsdT-3'; antisense 5'-ACUCUGUGuAAUUUUUGGUdTsdT-3'; as printed in the source, key not given here)”, the IC50 was found to be 0.047 nM.

Consider “XD-09611: siRNA targeting CD84 (sense 5'-gaGGGuAAuGuccuucAAAdTsdT-3'; antisense 5'-UUUGAAGGAcAUuACCCUCdTsdT-3'; as printed in the source, key not given here)”, for which the IC50 worked out at 0.082 nM.

As to “XD-09612: siRNA targeting CD84 (sense 5'-gguAAuGuccuucaAAucudTsdT-3'; antisense 5'-AGAUUUGAAGGAcAUuACCdTsdT-3'; as printed in the source, key not given here)”, the 50% inhibitory concentration (IC50) worked out at 0.351 nM. The same measure, in the same setting: then “XD-09613: siRNA targeting CD84 (sense 5'-ucAuAuGAucAuuuAAGGAdTsdT-3'; antisense 5'-UCCUuAAAUGAUcAuAUGAdTsdT-3'; RNA with 2'-O-methyl and phosphorothioate modifications, case key not given here, as printed in the source, key not given here)”, with 0.241 nM.
